“And” between values parts separate entries of the source, which are not always exact repeats. Equal entries are not always repeated.
System: K24384-001-R-PDC complex spheroid viability
Test: Anticancer human tumor K24384-001-R-PDC patient-derived pancreatic adenocarcinoma cell line growth inhibition
Settings: for viability, T/C: stronger effect = lower value
Outline: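 Drug combinations with the LSD1 inhibitor iadademstat tested on tumor cells co-cultured as spheroids with endothelial cells and mesenchymal stem cells. Concentrations descended in half-log increments from clinical Cmax or 10 microM.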

[1] = curve of first compound, second compound 0.1 µM
[2] = curve of first compound, second compound 0.316 µM
[3] = curve of first compound, second compound 1 µM
[4] = curve of first compound, second compound 3.16 µM
[5] = curve of first compound, second compound 10 µM
[6] = second compound 0.1 µM, first compound 0.0316 µM
[7] = second compound 0.1 µM, first compound 0.1 µM
[8] = second compound 0.1 µM, first compound 0.316 µM
[9] = second compound 0.1 µM, first compound 1 µM
[10] = second compound 0.1 µM, first compound 3.16 µM
[11] = second compound 0.1 µM, first compound 10 µM
[12] = second compound 0.316 µM, first compound 0.0316 µM
[13] = second compound 0.316 µM, first compound 0.1 µM
[14] = second compound 0.316 µM, first compound 0.316 µM
[15] = second compound 0.316 µM, first compound 1 µM
[16] = second compound 0.316 µM, first compound 3.16 µM
[17] = second compound 0.316 µM, first compound 10 µM
[18] = second compound 1 µM, first compound 0.0316 µM
[19] = second compound 1 µM, first compound 0.1 µM
[20] = second compound 1 µM, first compound 0.316 µM
[21] = second compound 1 µM, first compound 1 µM
[22] = second compound 1 µM, first compound 3.16 µM
[23] = second compound 1 µM, first compound 10 µM
[24] = second compound 3.16 µM, first compound 0.0316 µM
[25] = second compound 3.16 µM, first compound 0.1 µM
[26] = second compound 3.16 µM, first compound 0.316 µM
[27] = second compound 3.16 µM, first compound 1 µM
[28] = second compound 3.16 µM, first compound 3.16 µM
[29] = second compound 3.16 µM, first compound 10 µM
[30] = second compound 10 µM, first compound 0.0316 µM
[31] = second compound 10 µM, first compound 0.1 µM
[32] = second compound 10 µM, first compound 0.316 µM
[33] = second compound 10 µM, first compound 1 µM
[34] = second compound 10 µM, first compound 3.16 µM
[35] = second compound 10 µM, first compound 10 µM
[36] = second compound 0.1 µM, first compound 0.00949 µM
[37] = second compound 0.1 µM, first compound 0.03 µM
[38] = second compound 0.1 µM, first compound 0.0949 µM
[39] = second compound 0.1 µM, first compound 0.3 µM
[40] = second compound 0.1 µM, first compound 0.949 µM
[41] = second compound 0.1 µM, first compound 3 µM
[42] = second compound 0.316 µM, first compound 0.00949 µM
[43] = second compound 0.316 µM, first compound 0.03 µM
[44] = second compound 0.316 µM, first compound 0.0949 µM
[45] = second compound 0.316 µM, first compound 0.3 µM
[46] = second compound 0.316 µM, first compound 0.949 µM
[47] = second compound 0.316 µM, first compound 3 µM
[48] = second compound 1 µM, first compound 0.00949 µM
[49] = second compound 1 µM, first compound 0.03 µM
[50] = second compound 1 µM, first compound 0.0949 µM
[51] = second compound 1 µM, first compound 0.3 µM
[52] = second compound 1 µM, first compound 0.949 µM
[53] = second compound 1 µM, first compound 3 µM
[54] = second compound 3.16 µM, first compound 0.00949 µM
[55] = second compound 3.16 µM, first compound 0.03 µM
[56] = second compound 3.16 µM, first compound 0.0949 µM
[57] = second compound 3.16 µM, first compound 0.3 µM
[58] = second compound 3.16 µM, first compound 0.949 µM
[59] = second compound 3.16 µM, first compound 3 µM
[60] = second compound 10 µM, first compound 0.00949 µM
[61] = second compound 10 µM, first compound 0.03 µM
[62] = second compound 10 µM, first compound 0.0949 µM
[63] = second compound 10 µM, first compound 0.3 µM
[64] = second compound 10 µM, first compound 0.949 µM
[65] = second compound 10 µM, first compound 3 µM
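Note: spheroids exposed to agents for seven days before luminescence viability reading.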
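Throughout, for viability, T/C: 100% = DMSO vehicle control viability.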

O=C(c1cc(Cc2n[nH]c(=O)c3ccccc23)ccc1F)N1CCN(C(=O)C2CC2)CC1 + NC1CC1c1ccc(-c2cccc(O)c2)cc1
IC50 [1]: > 10000 nM | IC50 [2]: > 10000 nM | IC50 [3]: > 10000 nM | IC50 [4]: > 10000 nM | IC50 [5]: > 10000 nM | viability, T/C [6]: 96.3% | viability, T/C [7]: 73.9% | viability, T/C [8]: 84.4% | viability, T/C [9]: 65.8% | viability, T/C [10]: 56.2% | viability, T/C [11]: 67.4% | viability, T/C [12]: 89.8% | viability, T/C [13]: 80.5% | viability, T/C [14]: 79.5% | viability, T/C [15]: 77% | viability, T/C [16]: 57.6% | viability, T/C [17]: 66.1% | viability, T/C [18]: 78.7% | viability, T/C [19]: 73.5% | viability, T/C [20]: 72.6% | viability, T/C [21]: 81% | viability, T/C [22]: 66.6% | viability, T/C [23]: 70.8% | viability, T/C [24]: 78.7% | viability, T/C [25]: 77.3% | viability, T/C [26]: 83.8% | viability, T/C [27]: 72.2% | viability, T/C [28]: 68% | viability, T/C [29]: 59.8% | viability, T/C [30]: 86.6% | viability, T/C [31]: 81.5% | viability, T/C [32]: 76.5% | viability, T/C [33]: 87.4% | viability, T/C [34]: 54.5% | viability, T/C [35]: 62.3%

CCN(c1cc(-c2ccc(CN3CCOCC3)cc2)cc(C(=O)NCc2c(C)cc(C)[nH]c2=O)c1C)C1CCOCC1 + NC1CCC(NC2CC2c2ccccc2)CC1
IC50 [1]: > 3000 nM | IC50 [2]: > 3000 nM | IC50 [3]: > 3000 nM | IC50 [4]: > 3000 nM | IC50 [5]: > 3000 nM | viability, T/C [36]: 96% | viability, T/C [37]: 80.3% | viability, T/C [38]: 80.6% | viability, T/C [39]: 107% | viability, T/C [40]: 86.5% | viability, T/C [41]: 57.5% | viability, T/C [42]: 96.7% | viability, T/C [43]: 92.1% | viability, T/C [44]: 94.7% | viability, T/C [45]: 92.1% | viability, T/C [46]: 93.7% | viability, T/C [47]: 71.1% | viability, T/C [48]: 98.4% | viability, T/C [49]: 84.3% | viability, T/C [50]: 103% | viability, T/C [51]: 83.7% | viability, T/C [52]: 82.2% | viability, T/C [53]: 62.9% | viability, T/C [54]: 81.3% | viability, T/C [55]: 104% | viability, T/C [56]: 91.6% | viability, T/C [57]: 79.1% | viability, T/C [58]: 73% | viability, T/C [59]: 70.2% | viability, T/C [60]: 80.3% | viability, T/C [61]: 82.7% | viability, T/C [62]: 98.8% | viability, T/C [63]: 73.7% | viability, T/C [64]: 79.1% | viability, T/C [65]: 70.5%

CCc1c2c(nc3ccc(O)cc13)-c1cc3c(c(=O)n1C2)COC(=O)[C@]3(O)CC
viability, T/C (compound 0.000949 µM): 54.8% and 42% | viability, T/C (compound 0.003 µM): 49.9% and 39.2% | viability, T/C (compound 0.00949 µM): 32.7% | viability, T/C (compound 0.03 µM): 9.62% and 11.7% | viability, T/C (compound 0.0949 µM): 6.2% and 6.67% | viability, T/C (compound 0.3 µM): 5% and 5.21% | IC50 (curve of compound): 3.16 nM and < 0.949 nM

COc1cc(C2c3cc4c(cc3C(OC3OC5COC(C)OC5C(O)C3O)C3COC(=O)C23)OCO4)cc(OC)c1O (configuration not stated) + NC1CC1c1ccc(-c2cccc(O)c2)cc1
IC50 [1]: 263 nM | IC50 [2]: 199 nM | IC50 [3]: 238 nM | IC50 [4]: 275 nM | IC50 [5]: 317 nM | viability, T/C [36]: 96.9% | viability, T/C [37]: 76.4% | viability, T/C [38]: 62.4% | viability, T/C [39]: 47.8% | viability, T/C [40]: 40.5% | viability, T/C [41]: 38.2% | viability, T/C [42]: 83.1% | viability, T/C [43]: 88.7% | viability, T/C [44]: 63.4% | viability, T/C [45]: 44.2% | viability, T/C [46]: 39.9% | viability, T/C [47]: 34.5% | viability, T/C [48]: 74.7% | viability, T/C [49]: 77.5% | viability, T/C [50]: 60.5% | viability, T/C [51]: 45.6% | viability, T/C [52]: 40.8% | viability, T/C [53]: 30.2% | viability, T/C [54]: 73.5% | viability, T/C [55]: 82.1% | viability, T/C [56]: 66% | viability, T/C [57]: 47.9% | viability, T/C [58]: 41.5% | viability, T/C [59]: 32.8% | viability, T/C [60]: 90.7% | viability, T/C [61]: 84.9% | viability, T/C [62]: 62.8% | viability, T/C [63]: 53.6% | viability, T/C [64]: 41.3% | viability, T/C [65]: 42.8%

CC(C)CC(NC(=O)C(Cc1ccccc1)NC(=O)c1cnccn1)B(O)O (configuration not stated) + NC1CCC(NC2CC2c2ccccc2)CC1
IC50 [1]: 0.464 nM | IC50 [2]: 0.476 nM | IC50 [3]: 0.38 nM | IC50 [4]: 0.345 nM | IC50 [5]: 0.422 nM | viability, T/C (second compound 0.1 µM, first compound 0.000316 µM): 74% | viability, T/C (second compound 0.1 µM, first compound 0.001 µM): 1.78% | viability, T/C (second compound 0.1 µM, first compound 0.00316 µM): 0.23% | viability, T/C (second compound 0.1 µM, first compound 0.01 µM): 0.12% | viability, T/C [6]: 0.2% | viability, T/C [7]: 0.23% | viability, T/C (second compound 0.316 µM, first compound 0.000316 µM): 76.5% | viability, T/C (second compound 0.316 µM, first compound 0.001 µM): 1.74% | viability, T/C (second compound 0.316 µM, first compound 0.00316 µM): 0.26% | viability, T/C (second compound 0.316 µM, first compound 0.01 µM): 0.08% | viability, T/C [12]: 0.76% | viability, T/C [13]: 1.15% | viability, T/C (second compound 1 µM, first compound 0.000316 µM): 59.1% | viability, T/C (second compound 1 µM, first compound 0.001 µM): 2.07% | viability, T/C (second compound 1 µM, first compound 0.00316 µM): 0.15% | viability, T/C (second compound 1 µM, first compound 0.01 µM): 0.08% | viability, T/C [18]: 0.09% | viability, T/C [19]: 0.19% | viability, T/C (second compound 3.16 µM, first compound 0.000316 µM): 53.9% | viability, T/C (second compound 3.16 µM, first compound 0.001 µM): 1.45% | viability, T/C (second compound 3.16 µM, first compound 0.00316 µM): 0.27% | viability, T/C (second compound 3.16 µM, first compound 0.01 µM): 0.11% | viability, T/C [24]: 0.12% | viability, T/C [25]: 0.18% | viability, T/C (second compound 10 µM, first compound 0.000316 µM): 64.1% | viability, T/C (second compound 10 µM, first compound 0.001 µM): 8.36% | viability, T/C (second compound 10 µM, first compound 0.00316 µM): 2.45% | viability, T/C (second compound 10 µM, first compound 0.01 µM): 0.22% | viability, T/C [30]: 0.21% | viability, T/C [31]: 0.3%

CC1(C)CCC(CN2CCN(c3ccc(C(=O)NS(=O)(=O)c4ccc(NCC5CCOCC5)c([N+](=O)[O-])c4)c(Oc4cnc5[nH]ccc5c4)c3)CC2)=C(c2ccc(Cl)cc2)C1 + NC1CC1c1ccc(-c2cccc(O)c2)cc1
IC50 [1]: 3350 nM | IC50 [2]: 2600 nM | IC50 [3]: 2680 nM | IC50 [4]: 2690 nM | IC50 [5]: 1950 nM | viability, T/C [6]: 90.7% | viability, T/C [7]: 83.9% | viability, T/C [8]: 88.3% | viability, T/C [9]: 87.6% | viability, T/C [10]: 52.6% | viability, T/C [11]: 0.98% | viability, T/C [12]: 82.7% | viability, T/C [13]: 76.7% | viability, T/C [14]: 90% | viability, T/C [15]: 80.4% | viability, T/C [16]: 43.7% | viability, T/C [17]: 1.07% | viability, T/C [18]: 91.5% | viability, T/C [19]: 63.7% | viability, T/C [20]: 63.8% | viability, T/C [21]: 83.3% | viability, T/C [22]: 45.7% | viability, T/C [23]: 0.94% | viability, T/C [24]: 83.3% | viability, T/C [25]: 93.2% | viability, T/C [26]: 78.8% | viability, T/C [27]: 71% | viability, T/C [28]: 46.9% | viability, T/C [29]: 0.99% | viability, T/C [30]: 86.3% | viability, T/C [31]: 81.5% | viability, T/C [32]: 67.9% | viability, T/C [33]: 62.4% | viability, T/C [34]: 44.4% | viability, T/C [35]: 1%
